Results on eleven molecules are retold here after US20190292572A1, “Novel protic or phosphate-based ionic liquids useful for lignocellulosic processing” (priority 2016, published 2019).

Read-outs that look alike come from different tables or passages of the source.

The nature of one data set: pH of ILs. The data set is classed as physicochemical.
The subject of another data set is cellulases. The settings on record: previous literatures; cited from earlier work.
A short description of data set [1]: Biomass pretreatment using PBIL: enzymatic saccharification glucose yield.
A short description of data set [2]: One-pot IL pretreatment and enzymatic saccharification (sugar yield). On the set-up: species or system Panicum virgatum. The settings on record: for yield of glucose / yield of xylose: 160 °C. The method, then:
FIG. 3. Effect of IL type on the sugar yield (pretreatment: 10 wt % SG loading, 90 wt % IL, 140° C., 1 h, saccharification: 10 wt % IL, 10 mg protein per g switchgrass, 50° C., 72 h.
FIG. 4A. Effects of some parameters on the sugar yield: Biomass loading at pretreatment. Normal operation conditions: pretreatment, 10 wt % SG loading, 90 wt % IL, 160° C., 0.5 h (3 h for ecucalyptus); saccharification, 10 wt % IL, 20 mg protein/g SG, 50° C., 72 h.
FIG. 4B. Effects of some parameters on the sugar yield: Temperature/time. Normal operation conditions: pretreatment, 10 wt % SG loading, 90 wt % IL, 160° C., 0.5 h (3 h for ecucalyptus); saccharification, 10 wt % IL, 20 mg protein/g SG, 50° C., 72 h.
In a typical procedure, SG (100 mg) was mixed with ([EOA][OAc]) at a 10% biomass loading in a 15 mL capped glass pressure tube and pretreated in a convection oven at 160° C. for 0.5 h. Untreated raw SG (30-40 mesh) was used as a control. […] Enzymatic saccharification step was operated at 50° C. for 72 hrs with constant agitation on an Enviro Genie SI-1200 rotator platform (Scientific Industries, Inc., Bohemia, N.Y.). The loading of enzyme cocktails (9CTec2/HTec2, v/v) is 20 mg EP per g SG.

Data set [3] can be described thus: IL pretreatment and saccharification of different feedstocks: corn stover. The settings on record: corn stover (FIG. 4D). On the procedure:
(§1) FIG. 4D. Effects of some parameters on the sugar yield: Biomass category. Normal operation conditions: pretreatment, 10 wt % SG loading, 90 wt % IL, 160° C., 0.5 h (3 h for ecucalyptus); saccharification, 10 wt % IL, 20 mg protein/g SG, 50° C., 72 h.
(§2) Thereafter, we explored the feasibilities of [EOA][OAc] for the pretreatment of different feedstocks including mixed feedstocks of SG and eucalyptus (1:1, w/w), eucalyptus (EU), and corn stover (CS).

Data set [4] is described as follows: IL pretreatment and saccharification of different feedstocks: eucalyptus. The settings on record: 3 h pretreatment (FIG. 4D). On the procedure: as §1, §2
Data set [5] in a line: IL pretreatment and saccharification of different feedstocks: mixed feedstocks. The settings on record: mixed feedstocks SG and eucalyptus 1:1 (FIG. 4D). On the procedure:
as §1, §2

Data set [6] is described as follows: Compositional analysis of switchgrass after IL pretreatment. On the set-up: species or system Panicum virgatum. The settings on record: higher temperature pretreatment vs untreated. From the text:
Thus, compositional analysis of untreated, and pretreated SG with [EOA][OAc] at different temperatures and time was studied and the results were summarized in Table 4. Solid recovery refers to the mass percentage of biomass (dry weight) recovered from the original biomass load. After washing, 55-81% of the biomass was recovered. […] Untreated SG contained 29.6% glucan, 18.4% xylan and 20% acid insoluble lignin (entry 1). […] This trend was most obvious after pretreatment under higher temperature where lignin content was reduced by 77% (untreated: 20% vs. pretreated: 4.7%). […] IL are consistent with our previous report by using basic ILs such as [Ch][Lys] and [C2C1Im][Lys].^13
Compositional analysis of SG before and after pretreatment was performed using NREL acidolysis protocols (LAP) LAP-002 and LAP-005, which was described in our previous work.^13 In a typical process, 200 mg of biomass and 2 mL of 72 wt % H2SO4 were incubated at 30° C. while shaking at 300 rpm for 1 h. The solution was diluted to 4 wt % H2SO4 with 56 mL of DI water and autoclaved for 1 h at 121° C. […] Carbohydrate concentrations were determined from the filtrate using an Agilent HPLC 1200 Series equipped with a Bio-Rad Aminex HPX-87H column and a Refractive Index detector. […] Acid insoluble lignin was quantified gravimetrically from the solid after heating overnight at 105° C. […]

In data set [7] the test system is Saccharomyces cerevisiae strain BY4741. Put plainly: Toxicity test: yeast growth in IL solution. The data set is classed as cell-based. On the procedure:
FIG. 5A. Toxicity test of [EOA][OAc] (A) and effect of biomass loading on sugar yield (B). Conditions: yeast strain: Saccharomyces cerevisiae strain BY4741, growth condition: in 24-well microplate with orbital-high intensity shaking/31° C./in IL solution (10 g/L glucose in each IL solutions), volume of the cell culture was 0.5 mL.
For toxicity screening, a wild type S. cerevisiae BY4741 strain was technically used and it was immersed in various IL concentrations from 2.5 to 15 wt %.

Data set [8] can be described thus: One-pot pretreatment and SSF (cellulosic ethanol production). On the set-up: species or system Panicum virgatum. Particulars: for theoretical ethanol yield: SSF. On the procedure:
FIG. 6A. Process optimization of one-pot ethanol fermentation after [EOA][OAc] pretreatment. Effect of yeast loading on ethanol fermentation. Conditions: pretreatment, 40 wt % SG loading, 60 wt % IL, 160° C., 0.5 h; saccharification, 5 wt % IL, 20 mg protein/g SG, pH 5, 50° C., 24 h; fermentation, 37° C., 72 h.
FIG. 6B. Process optimization of one-pot ethanol fermentation after [EOA][OAc] pretreatment. Illustration of the glucose consumption and ethanol production during SSF. Conditions: pretreatment, 40 wt % SG loading, 60 wt % IL, 160° C., 0.5 h; saccharification, 5 wt % IL, 20 mg protein/g SG, pH 5, 50° C., 24 h; fermentation, 37° C., 72 h.
FIG. 7. Illustration of the glucose consumption and ethanol production during SSF. Conditions: pretreatment, 40 wt % SG loading, 60 wt % IL, 160° C., 0.5 h; saccharification, 5 wt % IL, 20 mg protein/g SG, 50° C., 24 h; fermentation, 37° C., 72 h.
In a typical procedure, SG (100 mg) was mixed with ([EOA][OAc]) at a 40% biomass loading in a 15 mL capped glass pressure tube and pretreated in a convection oven at 160° C. for 0.5 h. After pretreatment, the pretreated slurry was diluted with DI-water to obtain a final IL concentration of 5 wt %, and pre-saccharificated for 24 h under the same aforementioned conditions. Simultaneously, wide type yeast strain BY4741 was prepared. After the addition of yeast strain, the SSF step was conducted for 72 hrs.

[9] abbreviates: optimized conditions, short time pretreatment.
[10] abbreviates: T/t 140/1, IL concentration not given.

`NCCO.O=P(O)(O)O` [EA-dihydrogenphosphate]: in “pH of ILs” (Table 2), the pH amounted to 4.5.

`NCCCC[C@H](N)C(=O)O.NCCO` [EA-lysinate-m 1] had a pH in the data set “pH of ILs” (Table 2) of 9.

On to `CC(=O)[O-].CCn1cc[n+](C)c1` [[C2C1Im][OAc], 1-ethyl-3-methyl imidazolium acetate], for which the “IL concentration known to deactivate cellulases” value with cellulases was about 5 wt %.

For the molecule `CCCCn1cc[n+](C)c1.[Cl-]` [[C4C1Im][Cl], 1-n-butyl-3-methylimidazolium chloride], the “IL concentration known to deactivate cellulases” value in the data set with cellulases is given as about 5 wt %.

`C[N+](C)(C)CCO.C[N+](C)(C)CCO.O=P([O-])([O-])O` [[Ch]2[HPO4]] displayed a pH in the data set “pH of ILs” of 8. Besides, the “Enzymatic Saccharification Glucose yield %” value in data set [1] (T/t 140/1, IL 20%) amounted to 61.9%; in data set [1] (T/t 140/1, IL 50%) it was 55.1%; in data set [1] (T/t 140/1, IL 100%) it was 49.7%.

With `C[N+](C)(C)CCO.C[N+](C)(C)CCO.C[N+](C)(C)CCO.O=P([O-])([O-])[O-]` [[Ch]3[PO4]], the pH in “pH of ILs” is recorded as 12.5. The “Enzymatic Saccharification Glucose yield %” value is reported as 54.6% in data set [1] (T/t 140/1, IL 20%); 61.1% in data set [1] (T/t 140/1, IL 50%); 61.8% in [1] (T/t 140/1, IL 100%).

For `C[N+](C)(C)CCO.O=P([O-])(O)O` [[Ch][H2PO4], Cholinium dihydrogen-phosphate], the pH in “pH of ILs” and in “pH of ILs” (Table 2) was 4.5 each time. For the same molecule, the “Enzymatic Saccharification Glucose yield %” value in data set [1] (T/t 140/1, IL 20%) was found to be 17.5%; in data set [1] (T/t 140/1, IL 50%), 16.9%; in data set [1] (T/t 140/1, IL 100%) it was 14.4%.

As for `CC(=O)O.NCCO` [[EOA][OAc], ethanolamine acetate], the glucose yield in data set [2] (10% SG loading, 160 °C pretreated sample) is about 85%; in [2] (40 wt % starting biomass loading (60 wt % IL), diluted to 5 wt % IL in saccharification (FIG. 5B)), “comparative glucose yield with 20 wt % starting biomass loading”; in data set [2] (SG loading 25 wt %) it was “Around 60%”; in data set [2] (biomass loading 5 to 20 wt % at pretreatment (FIG. 4A)), “more than 75%”. Further, the yield of glucose in data set [2] (pretreatment time 0.5 hrs) stood at 85%; in [2] (pretreatment time 3 hrs) it was 87%. Further, the results for the yield of xylose in data set [2] (pretreatment time 0.5 hrs) and in [2] (pretreatment time 3 hrs) were 35% and 42%, respectively. Moreover, in [2] (from 140 to 160 °C), the “increase in digestibility of SG” value is “over 40%”. For the same molecule, the “sugar yield, IL screening” value in data set [2] (low pretreatment temperature and low enzyme loading (FIG. 3: 140 °C, 1 h, 10 mg protein per g switchgrass)) is “best performance”. For the same molecule, the “glucose (monomers) liberated from switchgrass” value in data set [2] (setting [9]) worked out at 85%. For the same molecule, in [2] (setting [9]), the “xylose (monomers) liberated from switchgrass” value came to 35%. Further, the “digestibility of SG” value in data set [2] (pretreatment 140 °C (FIG. 4B)) came to 60%; in data set [2] (pretreatment 160 °C (FIG. 4B)), 85%. In [2] (pretreatment 160 °C, 15 min), the “glucose released from SG” value is 45%. Further, the sugar yields result in data set [3] is listed as “best performance”; in [4], “low sugar yields”; in data set [5], “low sugar yields”. Also, in data set [6], the “lignin content reduced by” value is 77%. In data set [7] (5 wt % IL concentration), the yeast growth entry is given as “better yeast growth”. In [7] (IL concentrations from 2.5 to 15 wt %, FIG. 5A), the “IL titer at which better yeast growth occurs” value is reported as “below 10 wt %”. The theoretical ethanol yield in data set [8] (40 wt % SG loading at pretreatment) is given as 70%; in data set [8] (yeast loading 0.1 wt % (1 g/L)) it was “around 70%”. Also, in data set [8] (from the glucan present in 1 kg of SG), the ethanol produced was found to be 117 g. Besides, the “overall conversion in one-pot” value in data set [8] (glucan balance, FIG. 7) stood at 70%. In addition, in data set [8] (glucan/glucose balance, FIG. 7), the “glucose from saccharification converted to ethanol” value is on record as “over 90%”. Also, the “ethanol yield versus yeast loading” value in data set [8] (yeast loading increased from 0.01 to 0.21 wt % (FIG. 6A)) is listed as “no significant difference in ethanol yield”.

As to `CCCCN(CCCC)CCCC.O=P(O)(O)O` [[N444][H2PO4]], the “ILs pH” value in the data set “pH of ILs” (Table 5) was found to be 4.5. For the same molecule, the “Enzymatic Saccharification Glucose yield %” value in data set [1] (T/t 50/3) is 13.4 ± 2.6%; in data set [1] (T/t 90/3) it was 16.2 ± 0.6%.

Turning to “Cholinium bicarbonate [[Ch][Bicarbonate]]”, the “Enzymatic Saccharification Glucose yield %” value in data set [1] (setting [10]) was 52.8 ± 4.3%.

On to dimethylammonium dimethylcarbamate, for which the “Enzymatic Saccharification Glucose yield %” value in [1] (setting [10]) was found to be 55.2 ± 3.9%.
